From patent US11427567B2, “Imidazolyl pyrimidinylamine compounds as CDK2 inhibitors” (Incyte Corporation, priority 2019, dated 2022)

What follows are molecules tested against CDK2/Cyclin E1 (Homo sapiens (Human), UniProt P24941) (assay: CDK2/Cyclin E1 HTRF enzyme activity assay (Example A)). Conditions: 1 mM ATP.
Assay type: biochemical
Protocol: Assays were conducted in white 384-well polystyrene plates in a final reaction volume of 8 μL. […] HTRF signals were read after 1 hour at room temperature on a PHERAstar FS plate reader (BMG Labtech). Data was analyzed with IDBS XLFit and GraphPad Prism 5.0 software using a three or four parameter dose response curve to determine IC50 for each compound.

IC50, ≤ 50 nM:
CC(C)NCc1cc(F)c(-n2cnc(-c3nc(N[C@@H]4CCN(S(C)(=O)=O)C[C@H]4F)ncc3C(F)(F)F)c2)c(F)c1 [Example 391, 4-(1-(2,6-Difluoro-4-((isopropylamino)methyl)phenyl)-1H-imidazol-4-yl)-N-((3R,4R)-3-fluoro-1-(methylsulfonyl)piperidin-4-yl)-5-(trifluoromethyl)pyrimidin-2-amine]
COc1nccc(-n2cnc(-c3nc(N[C@H]4CCN(S(C)(=O)=O)C[C@H]4F)ncc3C(F)(F)F)c2)c1Cl [Example 300, 4-(1-(3-Chloro-2-methoxypyridin-4-yl)-1H-imidazol-4-yl)-N-((3R,4S)-3-fluoro-1-(methylsulfonyl)piperidin-4-yl)-5-(trifluoromethyl)pyrimidin-2-amine]
CS(=O)(=O)N1CCC(Nc2ncc(C(F)(F)F)c(-c3cn(-c4ccc(CN5CC[C@@H](O)C5)cc4Cl)cn3)n2)CC1 [Example 205]
CN(C)C1CCN(c2ccc(-n3cnc(-c4nc(NC5CCN(S(C)(=O)=O)CC5)ncc4C(F)(F)F)c3)c(Cl)c2)CC1 [Example 145, 4-(1-(2-Chloro-4-(4-(dimethylamino)-piperidin-1-yl)-phenyl)-1H-imidazol-4-yl)-N-(1-(methylsulfonyl)-piperidin-4-yl)-5-(trifluoromethyl)-pyrimidin-2-amine]
CS(=O)(=O)N1CCC(Nc2ncc(C(F)(F)F)c(-c3cn(-c4cccc(Cl)c4Cl)cn3)n2)CC1 [Example 60, 4-(1-(2,3-Dichlorophenyl)-1H-imidazol-4-yl)-N-(1-(methylsulfonyl)piperidin-4-yl)-5-(trifluoromethyl)pyrimidin-2-amine]
CS(=O)(=O)N1CC[C@@H](Nc2ncc(C(F)(F)F)c(-c3cn(-c4ccc(C#N)cc4Cl)cn3)n2)[C@H](F)C1 [Example 173, 3-Chloro-4-(4-(2-(((3R,4R)-3-fluoro-1-(methylsulfonyl)-piperidin-4-yl)-amino)-5-(trifluoro-methyl)pyrimidin-4-yl)-1H-imidazol-1-yl)benzonitrile]
Cc1cc(C#N)ncc1-n1cnc(-c2nc(NC3CCN(S(C)(=O)=O)CC3)ncc2C(F)(F)F)c1 [Example 168, 4-Methyl-5-(4-(2-((1-(methylsulfonyl)piperidin-4-yl)amino)-5-(trifluoromethyl)pyrimidin-4-yl)-1H-imidazol-1-yl)picolinonitrile]
CCN1CC(c2ccc(-n3cnc(-c4nc(NC5CCN(S(C)(=O)=O)CC5)ncc4C(F)(F)F)c3)c(C#N)c2)C1 [Example 429, 5-(1-Ethylazetidin-3-yl)-2-(4-(2-((1-(methylsulfonyl)piperidin-4-yl)amino)-5-(trifluoromethyl)pyrimidin-4-yl)-1H-imidazol-1-yl)benzonitrile]
CS(=O)(=O)N1CCC(Nc2ncc(C(F)(F)F)c(-c3cn(-c4c(F)cccc4Cl)cn3)n2)CC1 [Example 54, 4-(1-(2-Chloro-6-fluorophenyl)-1H-imidazol-4-yl)-N-(1-(methylsulfonyl)piperidin-4-yl)-5-(trifluoromethyl)pyrimidin-2-amine]
O=S(=O)(C1CC1)N1CCC(Nc2ncc(C(F)(F)F)c(-c3cn(CC(F)F)cn3)n2)CC1 [Example 29, N-(1-(Cyclopropylsulfonyl)piperidin-4-yl)-4-(1-(2,2-difluoroethyl)-1H-imidazol-4-yl)-5-(trifluoromethyl)pyrimidin-2-amine]
CS(=O)(=O)N1CCC(Nc2ncc(C(F)(F)F)c(-c3cn(-c4ccc(CN5CC[C@@H](O)C5)cc4C#N)cn3)n2)CC1 [Example 342, (R)-5-((3-Hydroxypyrrolidin-1-yl)methyl)-2-(4-(2-((1-(methylsulfonyl)piperidin-4-yl)amino)-5-(trifluoromethyl)pyrimidin-4-yl)-1H-imidazol-1-yl)benzonitrile]
CN(C)Cc1ccc(-n2cnc(-c3nc(N[C@H]4CCN(S(C)(=O)=O)C[C@H]4F)ncc3C(F)(F)F)c2)c(Cl)c1 [Example 183, 4-(1-(2-Chloro-4-((dimethylamino)methyl)phenyl)-1H-imidazol-4-yl)-N-((3R,4S)-3-fluoro-1-(methylsulfonyl)piperidin-4-yl)-5-(trifluoromethyl)pyrimidin-2-amine]
Cc1ccc(-n2cnc(-c3nc(NC4CCN(S(C)(=O)=O)CC4)ncc3C(F)(F)F)c2)c(C#N)c1Cl [Example 62, 2-Chloro-3-methyl-6-(4-(2-((1-(methylsulfonyl)piperidin-4-yl)amino)-5-(trifluoromethyl)pyrimidin-4-yl)-1H-imidazol-1-yl)benzonitrile]
Cc1nn(C)cc1-c1ccc(-n2cc(-c3nc(NC4CCN(S(C)(=O)=O)CC4)ncc3C(F)(F)F)nc2C)c(F)c1 [Example 127, 4-(1-(4-(1,3-Dimethyl-1H-pyrazol-4-yl)-2-fluorophenyl)-2-methyl-1H-imidazol-4-yl)-N-(1-(methylsulfonyl)piperidin-4-yl)-5-(trifluoromethyl)pyrimidin-2-amine]
CC(C)NCc1cccc(-n2cnc(-c3nc(NC4CCN(S(C)(=O)=O)CC4)ncc3C(F)(F)F)c2)c1Cl [Example 360, 4-(1-(2-Chloro-3-((isopropylamino)meth-yl)phenyl)-1H-imidazol-4-yl)-N-(1-(methylsulfonyl)piperidin-4-yl)-5-(trifluoromethyl)pyrimi-din-2-amine]
CS(=O)(=O)N1CCC(Nc2ncc(C(F)(F)F)c(-c3cn(C(CC#N)C4CC4)cn3)n2)CC1 (centres unmarked) [Example 25, 3-Cyclopropyl-3-(4-(2-((1-(methylsulfonyl)piperidin-4-yl)amino)-5-(trifluoromethyl)pyrimidin-4-yl)-1H-imidazol-1-yl)propanenitrile]
Cc1nc(CN(C)C)ccc1-n1cnc(-c2nc(NC3CCN(S(C)(=O)=O)CC3)ncc2C(F)(F)F)c1 [Example 263, 4-(1-(6-((Dimethylamino)methyl)-2-methylpyridin-3-yl)-1H-imidazol-4-yl)-N-(1-(methylsulfonyl)piperidin-4-yl)-5-(trifluoromethyl)pyrimidin-2-amine]
CS(=O)(=O)N1CCC(Nc2ncc(C(F)(F)F)c(-c3cn(-c4c(F)cc(CN5CCC5)cc4Cl)cn3)n2)CC1 [Example 395, 4-(1-(4-(Azetidin-1-ylmethyl)-2-chloro-6-fluorophenyl)-1H-imidazol-4-yl)-N-(1-(methyslulfonyl)piperidin-4-yl)-5-(trifluoromethyl)pyrimidin-2-amine]
Cc1nnn(C)c1-c1ccc(-n2cnc(-c3nc(NC4CCN(S(C)(=O)=O)CC4)ncc3C(F)(F)F)c2)c(Cl)c1 [Example 120, 4-(1-(2-Chloro-4-(1,4-dimethyl-1H-1,2,3-triazol-5-yl)phenyl)-1H-imidazol-4-yl)-N-(1-(methylsulfonyl)-piperidin-4-yl)-5-(trifluoromethyl)-pyrimidin-2-amine]
Cc1ccc(-n2cnc(-c3nc(N[C@H]4CCN(S(=O)(=O)c5cn(C)cn5)C[C@H]4C)ncc3C(F)(F)F)c2)c(C#N)n1 [Example 152, 6-Methyl-3-(4-(2-(((3R,4S)-3-methyl-1-((1-methyl-1H-imidazol-4-yl)sulfonyl)piperidin-4-yl)amino)-5-(trifluoromethyl)pyrimidin-4-yl)-1H-imidazol-1-yl)picolinonitrile]
CC(O)c1cccc(-n2cnc(-c3nc(NC4CCN(S(C)(=O)=O)CC4)ncc3C(F)(F)F)c2)c1Cl (centres unmarked) [Example 83, 1-(2-Chloro-3-(4-(2-((1-(methylsulfonyl)piperidin-4-yl)amino)-5-(trifluoromethyl)pyrimidin-4-yl)-1H-imidazol-1-yl)phenyl)ethan-1-ol]
Cc1nc(-c2nc(NC3CCN(S(C)(=O)=O)CC3)ncc2C(F)(F)F)cn1-c1ccc(N2CCC(N3CCN(C)CC3)CC2)cc1F [Example 415, 4-(1-(2-Fluoro-4-(4-(4-methylpiperazin-1-yl)piperidin-1-yl)phenyl)-2-methyl-1H-imidazol-4-yl)-N-(1-(methylsulfonyl)piperidin-4-yl)-5-(trifluoromethyl)pyrimidin-2-amine]
CS(=O)(=O)N1CCC(Nc2ncc(C(F)(F)F)c(-c3cn(-c4ccc(CN5CCC5)nc4C(F)(F)F)cn3)n2)CC1 [Example 247, 4-(1-(6-(Azetidin-1-ylmethyl)-2-(trifluoromethyl)pyridin-3-yl)-1H-imidazol-4-yl)-N-(1-(methylsulfonyl)piperidin-4-yl)-5-(trifluoromethyl)pyrimidin-2-amine]
CCN1CCN(Cc2cc(F)c(-n3cnc(-c4nc(NC5CCN(S(C)(=O)=O)CC5)ncc4C(F)(F)F)c3)c(F)c2)CC1 [Example 351, 4-(1-(4-((4-Ethylpiperazin-1-yl)methyl)-2,6-difluorophenyl)-1H-imidazol-4-yl)-N-(1-(methylsulfonyl)piperidin-4-yl)-5-(trifluoromethyl)pyrimidin-2-amine]
Cc1nc(-c2nc(NC3CCN(S(C)(=O)=O)CC3)ncc2C(F)(F)F)cn1-c1ccc(C2CN(CCO)C2)cc1F [Example 420, 2-(3-(3-Fluoro-4-(2-methyl-4-(2-((1-(methylsulfonyl)piperidin-4-yl)amino)-5-(trifluoromethyl)pyrimidin-4-yl)-1H-imidazol-1-yl)phenyl)azetidin-1-yl)ethan-1-ol]
CCNCc1ccc(-n2cnc(-c3nc(N[C@H]4CCN(S(C)(=O)=O)C[C@H]4C)ncc3C(F)(F)F)c2)c(Cl)c1 [Example 218, 4-(1-(2-Chloro-4-((ethylamino)methyl)-phenyl)-1H-imidazol-4-yl)-N-((3R,4S)-3-methyl-1-(methyl-sulfonyl)piperidin-4-yl)-5-(trifluoro-methyl)-pyrimidin-2-amine]
